How the values were obtained:
barnyard grass [1] = experiment: Test Example 3: herbicidal effect by foliage application, Wagner pot (Table 18, symbol H); type: in vivo, barnyard grass (Echinochloa crus-galli); settings: amount of applied herbicide 320 g/ha
Procedure, shortened: (§1)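 Plants were sown in alluvial soil held under 0.1–0.5 cm standing water and grown 14 days in a greenhouse at 25–30 °C. An emulsifiable formulation, water-diluted to the set dose, was then sprayed onto the foliage, and effects were scored three weeks later using previously defined criteria.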

green foxtail [2] = experiment: Test Example 5: herbicidal effect by foliage application, plastic box (Table 20, symbol G); type: in vivo, green foxtail (Setaria viridis); settings: foliage application, 320 g/ha, three weeks after application
Procedure, shortened: (§2)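 Plants were sown into sterilized diluvial soil under about 1.5 cm cover and kept in a greenhouse at 25° C. to 30° C. Fourteen days on, foliage received an even spray of the diluted emulsion. Herbicidal or crop effect was judged three weeks afterwards.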

Japanese bulrush = experiment: Test Example 2: herbicidal activity, application during weed generation under submerged conditions (Table 17, symbol B); type: in vivo, Japanese bulrush (Schoenoplectus juncoides); settings: AAH 320 g/ha; application during weed generation, submerged conditions
Method: (§3) [Test Example 2] Herbicidal Activity Test by Application during Weed Generation under Submerged Conditions After alluvial soil was placed into 1/10000 are of Wagner pot, water was poured and mixed to form a submerged condition having a water depth of 4 cm. Seeds of late watergrass, Japanese bulrush, and oval-leafed pondweed were sowed in a mixed manner in the aforementioned pot, and the pot was placed in a greenhouse at 25° C. to 30° C. for growth of the plants. When late watergrass, Japanese bulrush, and oval-leafed pondweed were grown to one leaf stage to two leaf stage, the emulsion agent of the compound of the present invention prepared according to Formulation Example 2 was diluted with water so as to achieve a predetermined herbicide amount, and the diluted emulsion agent was applied to the surface of the water. Three weeks after the herbicide application, the effect of the herbicide on each plant was evaluated according to the criteria of Test Example 1.

lambsquarters [3] = experiment: Test Example 5: herbicidal effect by foliage application, plastic box (Table 20, symbol O); type: in vivo, lambsquarters (Chenopodium album); settings: foliage application, 320 g/ha, three weeks after application
Procedure, shortened: as §2

redroot pigweed [4] = experiment: Test Example 5: herbicidal effect by foliage application, plastic box (Table 20, symbol N); type: in vivo, redroot pigweed (Amaranthus retroflexus); settings: foliage application, 320 g/ha, three weeks after application
Procedure, shortened: as §2

velvetleaf [5] = experiment: Test Example 5: herbicidal effect by foliage application, plastic box (Table 20, symbol M); type: in vivo, velvetleaf (Abutilon theophrasti); settings: foliage application, 320 g/ha, three weeks after application
Procedure, shortened: as §2

Chinese sprangletop = experiment: Test Example 3: herbicidal effect by foliage application, Wagner pot (Table 18, symbol D); type: in vivo, chinese sprangletop (Leptochloa chinensis); settings: amount of applied herbicide 320 g/ha
Procedure, shortened: as §1

lambsquarters [6] = experiment: Test Example 4: herbicidal effect by soil treatment (Table 19, symbol O); type: in vivo, lambsquarters (Chenopodium album); settings: amount of applied herbicide 320 g/ha
Procedure, shortened: (§4)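 In this soil treatment, the formulated compound reached the seeds only through the soil: seeds were buried about 1.5 cm deep in sterilized diluvial soil, then the diluted emulsion was sprayed over the surface. After three weeks at 25° C. to 30° C. in a greenhouse, effects were graded on criteria from an earlier test.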

barnyard grass [7] = experiment: Test Example 5: herbicidal effect by foliage application, plastic box (Table 20, symbol H); type: in vivo, barnyard grass (Echinochloa crus-galli); settings: foliage application, 320 g/ha, three weeks after application
Procedure, shortened: as §2

southern crabgrass [8] = experiment: Test Example 4: herbicidal effect by soil treatment (Table 19, symbol F); type: in vivo, southern crabgrass (Digitaria ciliaris); settings: amount of applied herbicide 320 g/ha
Procedure, shortened: as §4

redroot pigweed [9] = experiment: Test Example 4: herbicidal effect by soil treatment (Table 19, symbol N); type: in vivo, redroot pigweed (Amaranthus retroflexus); settings: amount of applied herbicide 320 g/ha
Procedure, shortened: as §4

barnyard grass [10] = experiment: Test Example 4: herbicidal effect by soil treatment (Table 19, symbol H); type: in vivo, barnyard grass (Echinochloa crus-galli); settings: amount of applied herbicide 320 g/ha
Procedure, shortened: as §4

velvetleaf [11] = experiment: Test Example 4: herbicidal effect by soil treatment (Table 19, symbol M); type: in vivo, velvetleaf (Abutilon theophrasti); settings: amount of applied herbicide 320 g/ha
Procedure, shortened: as §4

oval-leafed pondweed = experiment: Test Example 2: herbicidal activity, application during weed generation under submerged conditions (Table 17, symbol C); type: in vivo, oval-leafed pondweed (Monochoria vaginalis); settings: AAH 320 g/ha; application during weed generation, submerged conditions
Method: as §3

rice flat sedge = experiment: Test Example 3: herbicidal effect by foliage application, Wagner pot (Table 18, symbol E); type: in vivo, rice flat sedge (Cyperus iria); settings: amount of applied herbicide 320 g/ha
Procedure, shortened: as §1

southern crabgrass [12] = experiment: Test Example 5: herbicidal effect by foliage application, plastic box (Table 20, symbol F); type: in vivo, southern crabgrass (Digitaria ciliaris); settings: foliage application, 320 g/ha, three weeks after application
Procedure, shortened: as §2

late watergrass = experiment: Test Example 2: herbicidal activity, application during weed generation under submerged conditions (Table 17, symbol A); type: in vivo, late watergrass (Echinochloa oryzicola); settings: AAH 320 g/ha; application during weed generation, submerged conditions
Method: as §3

green foxtail [13] = experiment: Test Example 4: herbicidal effect by soil treatment (Table 19, symbol G); type: in vivo, green foxtail (Setaria viridis); settings: amount of applied herbicide 320 g/ha
Procedure, shortened: as §4

Structure (SMILES)	herbicidal effect on H: barnyard grass (barnyard grass [1])	G: green foxtail, herbicidal effect grade (green foxtail [2])	herbicidal effect rating, B: Japanese bulrush (Japanese bulrush)	O: lambsquarters, herbicidal effect grade (lambsquarters [3])	N: redroot pigweed, herbicidal effect grade (redroot pigweed [4])	M: velvetleaf, herbicidal effect grade (velvetleaf [5])	herbicidal effect on D: Chinese sprangletop (Chinese sprangletop)	herbicidal effect, O: lambsquarters (lambsquarters [6])	H: barnyard grass, herbicidal effect grade (barnyard grass [7])	herbicidal effect, F: southern crabgrass (southern crabgrass [8])	herbicidal effect, N: redroot pigweed (redroot pigweed [9])	herbicidal effect, H: barnyard grass (barnyard grass [10])	herbicidal effect, M: velvetleaf (velvetleaf [11])	herbicidal effect rating, C: oval-leafed pondweed (oval-leafed pondweed)	herbicidal effect on E: rice flat sedge (rice flat sedge)	F: southern crabgrass, herbicidal effect grade (southern crabgrass [12])	herbicidal effect rating, A: late watergrass (late watergrass)	herbicidal effect, G: green foxtail (green foxtail [13])
Cc1ccc2sc(-c3ccc(OC(F)F)cc3)c(-c3c(O)c(C)nn(C)c3=O)c2c1 [2-459]	3 (Herbicidal rate of 40% or more and less than 70%)	0 (Herbicidal rate of 5% or less (almost no effect))	0 (Herbicidal rate of 5% or less (almost no effect))	4 (Herbicidal rate of 70% or more and less than 90%)	4 (Herbicidal rate of 70% or more and less than 90%)	4 (Herbicidal rate of 70% or more and less than 90%)	0 (Herbicidal rate of 5% or less (almost no effect))	4 (Herbicidal rate of 70% or more and less than 90%)	0 (Herbicidal rate of 5% or less (almost no effect))	0 (Herbicidal rate of 5% or less (almost no effect))	5 (Herbicidal rate of 90% or more (almost completely withered))	0 (Herbicidal rate of 5% or less (almost no effect))	1 (Herbicidal rate of 5% or more and less than 20%)	0 (Herbicidal rate of 5% or less (almost no effect))	0 (Herbicidal rate of 5% or less (almost no effect))	0 (Herbicidal rate of 5% or less (almost no effect))	3 (Herbicidal rate of 40% or more and less than 70%)	0 (Herbicidal rate of 5% or less (almost no effect))
Cc1cc2sc(-c3ccc(OC(F)(F)F)cc3)c(-c3c(O)c(C)nn(C)c3=O)c2cc1C [5-109]			0 (Herbicidal rate of 5% or less (almost no effect))											0 (Herbicidal rate of 5% or less (almost no effect))			2 (Herbicidal rate of 20% or more and less than 40%)	

Reference: patent publication US20230085307A1, “PYRIDAZINONE COMPOUND AND HERBICIDE” (NISSAN CHEMICAL CORPORATION, priority 2019, published 2023)
